Experimental data as given in US10131558B1, “Compositions, methods, and/or systems for managing sulfide” (priority 2016, dated 2018).
Like-named read-outs stand apart in the source and are kept apart here.

Key:
[1] = Nitrate addition to sewage, lab jar tests and sewage collection system test
[2] = tested on: total heterotrophic bacteria; experiment: Disinfection of wastewater using chelated iron compounds; assay type: cell-based; conditions: 30 min, raw average 18,188 CFUs; for Test 3 CFUs/ml 12 ppm Fe-Chelant: chelant alone, no H2O2
Experimental: The clarified supernatant was then pored off of the top of the settled solids within the sample. The supernatant was then mixed and four samples were collected to determine untreated heterotrophic bacteria counts. […] were dissolved in distilled water at 0.4334M. Ferric chloride was added in amounts to achieve saturation of chelant sites on the respective chelants. […] Twenty individual liter samples of supernatant were then decanted from the well-mixed wastewater sample for testing. Four chelated iron products with peroxide were tested at two test concentrations and compared to samples receiving peroxide only and iron chelate only. […] Samples were then decanted to sterile sample containers containing sodium thiosulfate to stop the oxidation process and preserve the sample. Samples were then placed in a refrigerator until all samples were finished. Samples were packaged in a standard cooler with ice packs and sent via overnite delivery to ProChem Labs in Lynchburg, Va. for analysis for total heterotrophic bacteria counts.

[3] = Treatment of sulfides in municipal wastewater using ferric chelants and ozone; conditions: ozone ~13.4 ppm, 4 ppm ferric chelant where used; for sulfide remaining: start 13.70
Description: The raw wastewater received a dose of 4 ppm of each of the four ferric chelants (mass calculated as chelant) just prior to addition of ozone.
Ozone addition was accomplished using an ozone generator from Ozone Solutions, Sioux Center, Iowa. The generator was capable of generating up to 2 grams per hour of ozone. Injection of ozone into the wastewater was accomplished using an injection system from Ozone Solutions called the H2O-Mini. The unit is designed to treat from 1.5 to 5.7 liters per minute of wastewater. The unit was set up to deliver 6.7 mg/minute of dissolved ozone (assumed the 80% efficiency of dissolution noted by the manufacturer) to wastewater passing the injection nozzle within the H2O-mini. Each test was designed for maximum wastewater flow through the H2O-mini (5.7 liters/min).
An objective of the study will be to treat most, but not all, of the sulfide present within the individual test samples in order to determine which treatment was more efficient than the others.
Samples were taken over twenty minutes of contact time from the recirculation vessel after ozonation. For each of the four ferric chelant studies, chelants were added to the wastewater recirculation vessels just prior to starting the injection of ozone and recirculation of the liquids. The injection of ozone was applied over the prescribed period and sampled as before in the ozone only experiment.

[4] = Treatment of sulfides in municipal wastewater using ferric chelants and hydrogen peroxide; conditions: 20 ppm chelant and 105.8 ppm hydrogen peroxide
[5] = cited from earlier work
[6] = Anaerobic sulfide treatment: pure oxygen versus pure oxygen + ferric MGDA and nitrate; conditions: for Sulfide: control 33, 10 cc pure oxygen, ~0.1 ml ~0.03 M Fe MGDA with ~8.75 mg nitrate where used
Description: Three 300 milliliter Supelco test flasks were utilized for conducting the testing. Each flask had two valves and a single port for a septum to inject chemistry into the vessel. Each test flask was completely filled to zero headspace with wastewater from a municipal wastewater treatment facility that had been spiked with sodium sulfide. […] Test flasks were left at room temperature for two hours to assure that any oxygen within the wastewater in the test flasks was consumed prior to the study so as to mimic anaerobic wastewater conditions to initiate the study. […] Oxygen was injected simultaneously with a slight opening of a valve on the cylinder so that wastewater could could be displaced by the incoming volume of oxygen. […] The control sample flask received no injection of any ingredients. After injection of ingredients into each test flask, the flasks were placed on a New Brunswick Shaker Table and shaken for variable periods of time at ˜200 rpm's. After each test period flasks were removed and a sample extracted for sulfide testing using a La Motte Sulfide Color Comparison Test Kit. Sample for the control was taken at time zero for each study.

[7] = Anaerobic sulfide treatment: pure oxygen versus pure oxygen + ferric MGDA; conditions: 10 cc pure oxygen, ~0.1 ml ~0.03 M Fe MGDA where used

With `O=[N+]([O-])[O-].[Na+]` [sodium nitrate] the “reduction in sewage biological oxygen demand, BOD” value [1] was at most 70% and the “dissolved hydrogen sulfide after dosing” value ([1]; sewage containing over approximately 50 mg/L dissolved hydrogen sulfide) was under 0.1 mg/L.

In the case of `O=C([O-])CN(CC(=O)[O-])CC(=O)[O-].[Fe+3]` [Fe-NTA], the “Test 1 CFUs/ml 19.8 ppm H2O2 6 ppm Fe-Chelant” value [2] is reported as 370 CFUs/ml, the “Test 2 CFUs/ml 39.6 ppm H2O2 12 ppm Fe-Chelant” value [2] is reported as 75 CFUs/ml and the “Test 3 CFUs/ml 12 ppm Fe-Chelant” value [2] is reported as 18,300 CFUs/ml. The “Overall total percentage of sulfide reduction” value [3] was 91%, the “Overall total percentage of sulfide reduction” value ([3]; listed as ferric NTA) was 91% and the sulfide remaining ([3]; 5 min contact) was 3.40 ppm. For the same molecule, the sulfide remaining ([3]; 10 min contact) was 1.90 ppm, the sulfide remaining ([3]; 20 min contact) was 1.30 ppm and the “sulfide reduction after 15 minutes” value [4] was 70.2%.

In the case of `S` [HS^−], the “Proportion in dissolved sulfide” value ([5]; pH 5.0) is given as about 0.01, the “Proportion in dissolved sulfide” value ([5]; pH 6.0) is given as about 0.09 and the “Proportion in dissolved sulfide” value ([5]; pH 6.2) is given as about 0.14. For the same molecule, the “Proportion in dissolved sulfide” value ([5]; pH 6.4) was about 0.20, the “Proportion in dissolved sulfide” value ([5]; pH 6.6) was about 0.28 and the “Proportion in dissolved sulfide” value ([5]; pH 6.8) was about 0.39. For the same molecule, the “Proportion in dissolved sulfide” value ([5]; pH 7.0) was about 0.50, the “Proportion in dissolved sulfide” value ([5]; pH 7.2) was about 0.61 and the “Proportion in dissolved sulfide” value ([5]; pH 7.4) was about 0.72. The “Proportion in dissolved sulfide” value ([5]; pH 7.6) was about 0.80, the “Proportion in dissolved sulfide” value ([5]; pH 7.8) was about 0.86 and the “Proportion in dissolved sulfide” value ([5]; pH 8.0) was about 0.91. For the same molecule, the “Proportion in dissolved sulfide” value ([5]; pH 8.2) was about 0.941, the “Proportion in dissolved sulfide” value ([5]; pH 8.4) was about 0.961 and the “Proportion in dissolved sulfide” value ([5]; pH 8.6) was about 0.975. For the same molecule, the “Proportion in dissolved sulfide” value ([5]; pH 8.8) was about 0.986 and the “Proportion in dissolved sulfide” value ([5]; pH 9.0) was about 0.99.

In the case of `O=C([O-])CN(CCN(CC(=O)[O-])CC(=O)[O-])CC(=O)[O-].[Fe+3]` [Fe-EDTA], the “Test 1 CFUs/ml 19.8 ppm H2O2 6 ppm Fe-Chelant” value [2] is reported as 360 CFUs/ml, the “Test 2 CFUs/ml 39.6 ppm H2O2 12 ppm Fe-Chelant” value [2] is reported as 59 CFUs/ml and the “Test 3 CFUs/ml 12 ppm Fe-Chelant” value [2] is reported as 18,200 CFUs/ml. The “Overall total percentage of sulfide reduction” value [3] was 64%, the “Overall total percentage of sulfide reduction” value ([3]; listed as ferric EDTA) was 64% and the sulfide remaining ([3]; 5 min contact) was 6.20 ppm. For the same molecule, the sulfide remaining ([3]; 10 min contact) was 5.10 ppm, the sulfide remaining ([3]; 20 min contact) was 4.90 ppm and the “sulfide reduction after 15 minutes” value [4] was 60%.

In the case of `O=[O+][O-]` [Ozone, ozone, reference compound], the “Overall total percentage of sulfide reduction” value [3] is reported as 46%, the sulfide remaining ([3]; 5 min contact) is reported as 8.05 ppm and the sulfide remaining ([3]; 10 min contact) is reported as 7.50 ppm. For the same molecule, the sulfide remaining ([3]; 20 min contact) was 7.40 ppm.

With `O=O` [Oxygen, oxygen] the Sulfide ([6]; 5 min) was 30, the Sulfide ([6]; 10 min) was 16 and the sulfide reduced ([6]; after 10 minutes of contact) was “approximately 50%”. It also gave a Sulfide ([7]; Trial 1, 5 min, control 33, 300 ml flask) of 25 mg/L, a Sulfide ([7]; Trial 2, 5 min, control 31) of 25 mg/L and a Sulfide ([7]; Trial 2, 22 min, control 31) of 1.5 mg/L.

For `O=C([O-])CN(CCO)CC(=O)[O-].[Fe+3]` [Fe-HEIDA], the “Test 1 CFUs/ml 19.8 ppm H2O2 6 ppm Fe-Chelant” value [2] was 1350 CFUs/ml, the “Test 2 CFUs/ml 39.6 ppm H2O2 12 ppm Fe-Chelant” value [2] was 84 CFUs/ml and the “Test 3 CFUs/ml 12 ppm Fe-Chelant” value [2] was 16,700 CFUs/ml. For the same molecule, the “Overall total percentage of sulfide reduction” value [3] was 60%, the “Overall total percentage of sulfide reduction” value ([3]; listed as ferric HEIDA) was 60% and the sulfide remaining ([3]; 5 min contact) was 6.80 ppm. It also gave a sulfide remaining ([3]; 10 min contact) of 6.00 ppm and a sulfide remaining ([3]; 20 min contact) of 5.40 ppm.
